How the values were obtained:
MMP-1 = MMP-1 gene expression analysis by real-time PCR in dermal fibroblasts; type: cell-based; conditions: Homo sapiens, NB1RGB, 48 h, read-out: MMP-1 gene expression level
Method: (§1) As the control, a medium not comprising these components was used.
(§2) RNA concentrations were calculated using OD260 and diluted with TE Buffer to adjust the RNA concentrations to 10 μg/mL.
(§3) Reverse transcription of RNA was carried out using SuperScript™ IV VILO™ Master Mix with ezDNase (Cat No. 11766050, Invitrogen, USA). 4 μL of SuperScript™ IV VILO™ Master Mix and 6 μL of Nuclease-free Water were added per well in an 8-tube strip and heated at 25° C. for 10 min, 50° C. for 10 min, and 85° C. for 5 min using real-time PCR (QuantStudio (registered trademark) 3, Applied Biosystems, USA) to synthesize cDNA. 10 μL of TaqMan (registered trademark) Fast Advanced Master Mix (Cat No. 4444557, Applied Biosystems, USA), 1 μL of TaqMan Gene Expression, 7 μL of UltraPure™ Distilled Water (Invitrogen, Cat No. 10977-015, USA), and 2 μL of cDNA were added per well in a PCR plate and sealed. A primer (Hs00899658_ml) for MMP-1 and a primer (Hs00153510_ml) for NEP; and a primer (Hs02786624_g1) for GAPDH as an internal standard gene; were used to carry out real-time qPCR, the threshold cycle (Ct) value of each of the MMP-1 gene and the NEP gene in the medium supplemented with each component was calculated, and then Ct value was corrected with GAPDH to obtain a ΔCt value. Assuming that gene level doubles per cycle, when gene expression level of the control was set at 1, the gene expression level in the medium supplemented with each component was determined. In the analysis of gene expression level, the average value of 24-well plate×3 wells was used for each treatment group.

NEP = NEP gene expression analysis by real-time PCR in dermal fibroblasts; type: cell-based; conditions: Homo sapiens, NB1RGB, 48 h, read-out: NEP gene expression level
Method: as §1, §2, §3

Type I collagen = assay: Collagen production rate in culture supernatant by sandwich ELISA; type: cell-based; conditions: Homo sapiens, NB1RGB fibroblasts, 48 h, OD405/OD570, no-addition group = 100, read-out: Collagen production rate (%) per cell
Method: A supernatant of the culture cultured in 2-1 was dispensed into a new 96-well plate and frozen for storage (−80° C.). The collagen production rate in the culture supernatant was measured by sandwich ELISA, and the effect of citronellol on the collagen level was evaluated.
100 μL of culture supernatant diluted 4-fold with PBS(−) was added to a high-binding 96-well plate, and incubated overnight at 4° C. Type I collagen solution (Cat No. 009-001-103, RCK, USA) was used as a standard substance. […] The dye was uniformized within the 96-well plate, and then absorbance (OD405) at 405 nm was measured using a microplate reader.
Setting OD405 of the control group at 100%, the collagen production rate of citronellol was calculated. In addition, the OD405 of the control and citronellol were each divided by OD570 measured in 2-2 to calculate the collagen production rate per cell. Setting the collagen production rate per cell in the control group at 100%, the collagen production rate of citronellol per cell was calculated.

[1] = test system: human neonatal dermal fibroblast cell line NB1RGB
Method: After 24 h, the medium was removed and replaced with a medium to which citronellol (CAS number: 106-22-9, Wako Pure Chemical Industries, Ltd.) was added so as to have the final concentration shown in Table 3 below, and the cells were further cultured within the CO2 incubator for 48 h. As the control, a medium not comprising citronellol was used.
According to the following method, the effect of citronellol on proliferation of dermal fibroblasts was evaluated.
A 96-well plate from which the medium was removed was washed with 100 μL of PBS(−). 100 μL of 0.5 mg/mL 3-(4,5-dimethylthiazol-2-yl)-2,5-diphenyltetrazolium bromide (MTT, CAS No. 298-93-1, Sigma-Aldrich, USA) solution was then added and incubated within a CO2 incubator for 2 h. After removing the MTT solution and washing with 100 μL of PBS(−), 200 μL of 2-propanol (CAS No. 67-63-0, Wako, Japan) was added to dissolve the insoluble formazan. A dye was uniformly dispersed within the 96-well plate, and then absorbance (OD570) at 570 nm was measured using a microplate reader (SPARK (registered trademark), 10M TECAN, Switzerland). Setting OD570 of the control group at 100%, OD570 of the citronellol-added group, i.e., the effect on cell proliferation, was calculated as the cell-activating effect (%) of citronellol. In the analysis of cell-activating effect, the average value of 96-well plate 9×3 wells was used for each treatment group.

Row | Compound | fold induction at 50 µM (MMP-1) | fold induction at 50 µM (NEP) | activity at 50 µM (Type I collagen) | cell-activating effect / toxicity (proliferation of fibroblasts, MTT) [1]
1 | CCCCCOC(=O)CCC [Amyl butyrate] | 0.24 | 0.43 |  | 
2 | CC(C)=CCCC(C)=CCCC(C)=CCO [Farnesol] | 0.22 | 0.44 |  | 
3 | CC(C)=CCCC(C)CCO (stereo not shown) [Citronellol] | 0.25 | 0.85 | 102% | no cell-activating effect or toxicity
4 | c1ccc2[nH]ccc2c1 [Indole] | 0.36 | 0.4 |  | 

— patent publication US20260283917A1, “ANTI-WRINKLE AGENT” (SHISEIDO COMPANY, LTD., priority 2023, published 2026)
